Measurements reported in patent US20140193824A1, “High-Resolution Clonal Typing of Escherichia coli” (priority 2013, published 2014).
Where two headings read alike, the source gives them in different places.

Tests used:
[1] = test system: clinical E. coli isolates
Excerpt: The primary set of 1,518 recent clinical E. coli isolates consisted of consecutive single-patient human extraintestinal isolates recovered between October 2010 and June 2011 at five clinical microbiology laboratories serving distinct patient populations in Seattle, Wash. (Group Health Cooperative, Harborview Medical Center, Seattle Children's Hospital, and the University of Washington Medical Center), and Minneapolis, Minn. (Veterans Affairs Medical Center). […] Another set of E. coli isolates was obtained from the University Hospital in Munster, Germany, and consisted of 161 consecutive isolates from urine samples recovered from July to September 2012.
(§1) Antimicrobial susceptibility profiles were determined using disk diffusion testing. The interpretive criteria were those specified by the Clinical and Laboratory Standards Institute (CLSI).
(§2) Each isolate in the primary collection was classified as resistant or susceptible to each of the 11 antimicrobials based on the prevalence of susceptibility to the particular antimicrobial in the rest of isolates belonging to the same clonotype (i.e., for each isolate classification, the susceptibility of the corresponding clonotype was recalculated by excluding the profile of the isolate to be classified). Thus, clonotype-guided antibiotic selection was evaluated only for isolates from clonotypes comprising greater than or equal to 2 isolates.
To avoid potential self-selection bias in the analysis of these smaller groups, the susceptibility classification for the isolates in each subset was done after excluding the susceptibility profiles of that particular subset, i.e., by using the clonotype susceptibility profiles of the remaining isolates from common clonotypes (Table 4).

[2] = test system: clinical E. coli isolates; assay: Antimicrobial susceptibility by disk diffusion testing (CLSI criteria) of clinical E. coli isolates; assay type: cell-based, Escherichia coli; conditions: for Observed Resistance rate: rate of resistant isolates among 1,413 nonsingleton isolates of the primary collection
Procedure: (Veterans Affairs Medical Center).
Antimicrobial susceptibility profiles were determined using disk diffusion testing.
The prevalence of susceptibility to individual agents was calculated for the total primary collection, for individual participating laboratories, and for individual CH clonotypes. Odds ratios (ORs) were calculated for each subgroup (i.e., laboratory or clonotype) relative to the rest of the population. If the OR was >2 or <0.5, its statistical significance was evaluated using Fisher's exact test.

[3] = test system: clinical E. coli isolates; assay: Clonotype-guided (CH, fumC-fimH) prediction of antimicrobial resistance, primary collection, >=80% clonotype susceptibility cutoff; set-up: species or system Escherichia coli; conditions: for Resistance among allowed isolates (actual prevalence of resistance): allowed population; for Resistance among rejected isolates: rejected population
Procedure: as §1
Internal (<500 bp) regions of fumC and fimH were amplified by PCR, and the DNA sequences were determined by Sanger sequencing. Each unique combination of fumC and fimH alleles defined a CH clonotype. The diversity of the clonotype distribution was evaluated using the Simpson's modified alpha-diversity index.
as §2

[4] = Harborview Med. Center, Seattle

Row | Molecule | Observed Resistance rate [2] [%] | Resistance among allowed isolates (actual prevalence of resistance) [3] [%] | Resistance among rejected isolates [3] [%] | also measured
1 | trimethoprim-sulfamethoxazole [T/S] | 26.9 | – | – | Resistance among allowed isolates ([1]; Children's Hospital, Seattle): 14.2%; Resistance among allowed isolates ([1]; Group Health Co-op, Seattle): 5.0%; Resistance among rejected isolates ([1]; Group Health Co-op, Seattle): 36.2%; Resistance among allowed isolates [1, 4]: 7.4%; Resistance among allowed isolates ([1]; Univ. of Münster, Münster): 14.3%; Resistance among allowed isolates ([1]; Univ. of Washington, Seattle): 11.4%; Resistance among rejected isolates ([1]; Univ. of Washington, Seattle): 62.6%; Resistance among allowed isolates ([1]; VA Med. Center, Minneapolis): 17.0%; Actual prevalence of resistance among allowed isolates, mean ([1]; mean over the laboratories): 12.1%; Total Resistant ([2]; Children's Hospital, Seattle): 34.2%; Total Resistant ([2]; Group Health Co-op, Seattle): 20.1%; Total Resistant [2, 4]: 30.4%; Total Resistant ([2]; Univ. of Münster, Münster, 161 urine isolates): 32.6%; Total Resistant ([2]; Univ. of Washington, Seattle): 33.3%; Total Resistant ([2]; VA Med. Center, Minneapolis): 34.0%
2 | CC1(C)S[C@@H]2[C@H](NC(=O)[C@H](N)c3ccccc3)C(=O)N2[C@H]1C(=O)O [AMP, ampicillin] | 51.6 | 21.9 | 60.1 | –
3 | Cc1nnc(SCC2=C(C(=O)O)N3C(=O)[C@@H](NC(=O)Cn4cnnn4)[C@H]3SC2)s1 [CZ, cefazolin] | 19.7 | 10.7 | 32.0 | –
4 | gentamicin [GM] | 8.92 | 4.3 | 31.4 | –
5 | CN(C)[C@@H]1C(O)=C(C(N)=O)C(=O)[C@@]2(O)C(O)=C3C(=O)c4c(O)cccc4[C@@](C)(O)[C@H]3C[C@@H]12 [TET, tetracycline] | 29.5 | 11.5 | 48.0 | –
6 | piperacillin-tazobactam [PTZ] | 3.96 | 3.8 | 13.3 | –
7 | ampicillin-sulbactam [A/S] | 29.4 | 13.0 | 37.9 | –
8 | amoxicillin-clavulanate [A/K] | 25.5 | – | – | –
9 | O=C1CN(/N=C/c2ccc([N+](=O)[O-])o2)C(=O)N1 [NIT, nitrofurantoin] | 6.79 | 5.5 | 27.4 | –
10 | CO/N=C(\C(=O)N[C@@H]1C(=O)N2C(C(=O)O)=C(CSc3nc(=O)c(=O)[nH]n3C)CS[C@H]12)c1csc(N)n1 [CTR, ceftriaxone] | 5.38 | 4.2 | 31.1 | –
